# Reference: patent publication US6376670B1, “Quinoline-indole antimicrobial agents, uses and compositions related thereto” (Sepracor Inc., priority 1997, dated 2002)
# Where two headings read alike, the source gives them in different places.
# Legend:
# Assay in all cases: Determination of MIC values (BHI broth, 96 well microtiter plate)
# Assay type in all cases: cell-based
# [1] = system: methicillin-resistant Staphylococcus aureus (MRSA); details: Staphylococcus aureus, MRSA, BHI broth, read-out: MIC MRSA
# Method in brief: (§1)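 Organisms are grown in BHI at 37° C (about 7% CO2) to a 0.5 McFarland standard, then inoculated at 10^5 to 10^6 cells/mL into BHI holding twofold compound dilutions (final 25 down to 0.39 µg/mL, DMSO-diluted). After overnight incubation, MIC is the lowest concentration lacking growth.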
# Streptococcus pneumoniae = details: Streptococcus pneumoniae, BHI broth, read-out: MIC S. pneu
# Method in brief: as §1
# [2] = system: vancomycin-resistant Enterococcus spp. (VRE); details: Enterococcus, VRE, BHI broth, read-out: MIC VREF
# Method in brief: as §1
# [3] = 16 h, 37° C., overnight (about 16 hours)
# [4] = 37° C., overnight (about 16 hours)
SMILES,MIC ([1]; overnight 37° C.) [µg/mL],"MIC (Streptococcus pneumoniae; S. pneu, overnight 37° C.) [µg/mL]","MIC ([2]; VREF, overnight 37° C.) [µg/mL]",other results
NCc1ccc(CNC(=O)c2cc(-c3cnc4ccccc4c3)nc3ccc(I)cc23)cc1 [Example 151],–,–,–,"MIC [1, 3]: > 25 µg/mL; MIC (Streptococcus pneumoniae; [4]): > 25 µg/mL; MIC [2, 3]: > 25 µg/mL"
CN(CC#Cc1ccc2nc(-c3cn(C)c4ccc(Br)cc34)cc(C(=O)NCc3ccc(CN)cc3)c2c1)C1CCCCC1 [Example 397],< 7,< 7,< 7,–
Cn1cc(-c2ccc3cc(Cl)ccc3n2)c2c(F)cccc21 [Example 211],< 25,> 25,> 25,–
NCc1ccc(CNC(=O)c2cc(-c3c[nH]c4ccc(Cl)cc34)nc3cc(Br)ccc23)cc1 [Example 230],< 7,< 7,< 7,–
Cc1cccc2c(-c3ccc4cc(Cl)ccc4n3)c[nH]c12 [Example 291],> 25,> 25,> 25,–
Cn1cc(-c2cc(C(=O)NCCN)c3cc(Cl)ccc3n2)c2cc(Br)ccc21 [Example 370],< 7,< 7,< 7,–
NCCCNC(=O)c1cc(-c2c[nH]c3cc(F)ccc23)nc2cc(F)ccc12 [Example 495],–,–,–,"MIC ([1]; 16 h, 37° C., about 16 hours): < 25 µg/mL; MIC (Streptococcus pneumoniae; 37° C., about 16 hours): < 25 µg/mL; MIC ([2]; 16 h, 37° C., about 16 hours): > 25 µg/mL"
CN(CC[N+](C)(C)C)C(=O)c1cc(-c2c[nH]c3ccc(Br)cc23)nc2cc(Cl)ccc12 [Example 520],–,–,–,"MIC ([1]; 16 h, 37° C., about 16 hours): < 7 µg/mL; MIC (Streptococcus pneumoniae; 37° C., about 16 hours): < 7 µg/mL; MIC ([2]; 16 h, 37° C., about 16 hours): < 7 µg/mL"
Cc1ccc2nc(-c3c[nH]c4cc(F)ccc34)ccc2c1 [Example 435],–,–,–,"MIC ([1]; 16 h, 37° C., about 16 hours): > 25 µg/mL; MIC (Streptococcus pneumoniae; 37° C., about 16 hours): > 25 µg/mL; MIC ([2]; 16 h, 37° C., about 16 hours): > 25 µg/mL"
NCc1ccc(CNC(=O)c2cc(-c3c[nH]c4ccc(Br)cc34)nc3c(C#CCNCCc4ccc(Cl)cc4)cccc23)cc1 [Example 301],< 7,< 25,< 25,–
Cn1cc(-c2cc(C(=O)NCC3CCC(CN)CC3)c3ccc(I)cc3n2)c2cc(Br)ccc21 (stereo not drawn) [Example 331],< 7,< 7,< 7,–
NCc1ccc(CNC(=O)c2cc(-c3c[nH]c4ccccc34)nc3ccc(I)cc23)cc1 [Example 159],–,–,–,"MIC [1, 3]: < 7 µg/mL; MIC (Streptococcus pneumoniae; [4]): < 25 µg/mL; MIC [2, 3]: < 25 µg/mL"
NCCNC(=O)c1cc(-c2c[nH]c3ccc(Cl)cc23)nc2ccc(Br)cc12 [Example 313],< 7,< 7,< 7,–
COC(=O)c1cc(-c2cn(C)c3ccc(Br)cc23)nc2cc(F)ccc12 [Example 309],> 25,> 25,> 25,–
NCCCCCCNC(=O)c1cc(-c2c[nH]c3ccc(Br)cc23)nc2ccc(I)cc12 [Example 111],–,–,–,"MIC [1, 3]: < 7 µg/mL; MIC (Streptococcus pneumoniae; [4]): < 7 µg/mL; MIC [2, 3]: < 7 µg/mL"
Cc1[nH]c2ccccc2c1-c1cc(Cl)c2ccccc2n1 [Example 352],< 7,< 7,> 25,–
NCc1cccc(CNC(=O)c2cc(-c3c[nH]c4ccc(Br)cc34)nc3c(Cl)c(Cl)ccc23)c1 [Example 276],< 7,> 25,< 7,–
NCc1cccc(CNC(=O)c2cc(-c3c[nH]c4ccc(Br)cc34)nc3ccc(Cl)cc23)c1 [Example 134],–,–,–,"MIC [1, 3]: < 7 µg/mL; MIC (Streptococcus pneumoniae; [4]): < 7 µg/mL; MIC [2, 3]: < 7 µg/mL"
Cn1cc(-c2cc(C(=O)NCc3cccc(CN)c3)c3cc(I)ccc3n2)c2cc(Cl)ccc21 [Example 225],< 7,< 7,< 7,–
NCc1ccc(CNC(=O)c2cc(-c3c[nH]c4ccc(Br)cc34)nc3ccc(C#CCNC4CCCCC4)cc23)cc1 [Example 236],< 7,< 7,< 7,–
Cn1cc(-c2cc(C(=O)NCc3ccc(CN)cc3)c3cc(C#CCNCCc4ccc(Cl)cc4)ccc3n2)c2cc(Br)ccc21 [Example 390],< 25,< 7,< 7,–

SMILES,MIC ([1]; overnight 37° C.) [µg/mL],"MIC (Streptococcus pneumoniae; S. pneu, overnight 37° C.) [µg/mL]","MIC ([2]; VREF, overnight 37° C.) [µg/mL]",other results
CN(C)CCN(C)C(=O)c1cc(-c2c[nH]c3ccc(Br)cc23)nc2ccc(I)cc12 [Example 499],–,–,–,"MIC ([1]; 16 h, 37° C., about 16 hours): < 7 µg/mL; MIC (Streptococcus pneumoniae; 37° C., about 16 hours): < 7 µg/mL; MIC ([2]; 16 h, 37° C., about 16 hours): < 7 µg/mL"
OCc1cc(-c2c[nH]c3ccc(Br)cc23)nc2ccc(F)cc12 [Example 443],–,–,–,"MIC ([1]; 16 h, 37° C., about 16 hours): < 7 µg/mL; MIC (Streptococcus pneumoniae; 37° C., about 16 hours): < 7 µg/mL; MIC ([2]; 16 h, 37° C., about 16 hours): < 25 µg/mL"
c1ccc2nc(-c3c[nH]c4ccccc34)ccc2c1 [Example 163],–,–,–,"MIC [1, 3]: < 25 µg/mL; MIC (Streptococcus pneumoniae; [4]): > 25 µg/mL; MIC [2, 3]: > 25 µg/mL"
Cn1cc(-c2cc(C(=O)NCc3ccc(CN)cc3)c3cc(C#CCNCCc4ccccc4)ccc3n2)c2cc(Br)ccc21 [Example 389],< 7,< 25,< 7,–
c1ccc(COc2ccc3[nH]cc(-c4ccc5ccccc5n4)c3c2)cc1 [Example 184],–,–,–,"MIC [1, 3]: > 25 µg/mL; MIC (Streptococcus pneumoniae; [4]): < 7 µg/mL; MIC [2, 3]: > 25 µg/mL"
CC(C)N(CC#Cc1ccc2nc(-c3cn(C)c4ccc(Br)cc34)cc(C(=O)NCc3ccc(CN)cc3)c2c1)C(C)C [Example 398],< 7,< 7,< 7,–
O=C(Nc1ccc(O)cc1)c1cc(-c2c[nH]c3ccc(Br)cc23)nc2ccc(C(F)(F)F)cc12 [Example 171],–,–,–,"MIC [1, 3]: < 7 µg/mL; MIC (Streptococcus pneumoniae; [4]): < 7 µg/mL; MIC [2, 3]: < 7 µg/mL"
Cn1cc(-c2cc(C(=O)NCc3cccc(CN)c3)c3ccc(I)cc3n2)c2cc(Br)ccc21 [Example 330],< 7,< 7,< 7,–
NCC1CCCC(CNC(=O)c2cc(-c3c[nH]c4ccc(Br)cc34)nc3ccc(I)cc23)C1 (stereo not drawn) [Example 115],–,–,–,"MIC [1, 3]: < 7 µg/mL; MIC (Streptococcus pneumoniae; [4]): < 7 µg/mL; MIC [2, 3]: < 7 µg/mL"
Cn1cc(-c2cc(C(=O)NC3CCC(N)CC3)c3cc(I)ccc3n2)c2cc(Br)ccc21 (stereo not drawn) [Example 360],< 7,< 7,< 7,–
CC(C)(C)OC(=O)n1cc(-c2ccc3cc(I)ccc3n2)c2cc(Br)ccc21 [Example 362],> 25,> 25,> 25,–
COc1ccc(NC(=O)c2cc(-c3c[nH]c4ccc(Br)cc34)nc3ccc(I)cc23)cc1 [Example 174],–,–,–,"MIC [1, 3]: < 7 µg/mL; MIC (Streptococcus pneumoniae; [4]): < 25 µg/mL; MIC [2, 3]: > 25 µg/mL"
Cc1ccc2nc(-c3c[nH]c4ccc(Cl)cc34)ccc2c1 [Example 441],–,–,–,"MIC ([1]; 16 h, 37° C., about 16 hours): > 25 µg/mL; MIC (Streptococcus pneumoniae; 37° C., about 16 hours): > 25 µg/mL; MIC ([2]; 16 h, 37° C., about 16 hours): > 25 µg/mL"
Clc1cc(-c2c[nH]c3cccc(Cl)c23)nc2ccccc12 [Example 341],< 7,< 7,< 7,–
O=C(O)c1cc(-c2c[nH]c3ccc(Br)cc23)nc2cc(Cl)c(C#CCN3CCCCC3)cc12 [Example 516],–,–,–,"MIC ([1]; 16 h, 37° C., about 16 hours): < 7 µg/mL; MIC (Streptococcus pneumoniae; 37° C., about 16 hours): < 7 µg/mL; MIC ([2]; 16 h, 37° C., about 16 hours): < 25 µg/mL"
NCc1ccc(CNC(=O)c2cc(-c3c[nH]c4ccc(Br)cc34)nc3c(C#CCN4CCCCC4)cccc23)cc1 [Example 263],< 25,< 7,< 25,–
NCCCCCNC(=O)c1cc(-c2c[nH]c3ccc(Br)cc23)nc2ccc(I)cc12 [Example 110],–,–,–,"MIC [1, 3]: < 7 µg/mL; MIC (Streptococcus pneumoniae; [4]): < 7 µg/mL; MIC [2, 3]: < 7 µg/mL"
Cn1cc(-c2cc(C(=O)NCc3ccc(CN)cc3)c3cc(C#CCN4CCCCC4)ccc3n2)c2cc(Br)ccc21 [Example 376],< 25,< 7,< 25,–
NCCNC(=O)c1cc(-c2c[nH]c3ccc(Br)cc23)nc2cc(Cl)cc(Cl)c12 [Example 295],< 7,< 7,< 7,–
O=C(O)c1cc(-c2c[nH]c3ccc(Br)cc23)nc2ccc(C#CCN3CCCC3)cc12 [Example 234],> 25,> 25,> 25,–
CCOc1cc(-c2c[nH]c3ccc(Br)cc23)nc2ccc(I)cc12 [Example 364],< 7,< 7,< 25,–
